What was measured:
[1] = test system: MDA-MB-231; experiment: Cell cycle analysis (G2/M arrest, PI staining, flow cytometry), MDA-MB-231; assay type: cell-based; conditions: Homo sapiens, MDA-MB-231, read-out: EC50 (G2/M arrest)
Description: Fig. 2 Antimitotic activity of WEHI-7326: cancer cell lines and effects on tubulin polymerization. a Dose-dependent antimitotic activity of WEHI-7326, nocodazol and taxol in tumor cell lines SW480 (colorectal) and MDA-MB-231 (breast). Data are presented as percentage of cells in G2/M after overnight incubation with increasing concentrations of inhibitors and PI staining followed by flow cytometry analysis. Mean average of 3 independent experiments ±SEM. b EC50 values (nM) for G2/M arrest on SW480 and MDA-MB-231 cell lines, given as mean average of 3 independent experiments ±SEM. c Western blot analysis of mitotic arrest in SW480 and MDA-MB-231 cells treated with EC50 concentrations of WEHI-7326 or Paclitaxel as marked by expression of phosho-S10 Histone H3 (p-HH3 S10), at different timepoints post treatment. Expression of β-actin provided as loading control. d Cell cycle analysis of LIM1899 cells 72 h post treatment with increasing concentrations of WEHI-7326 as measured by PI staining for DNA content followed by flow cytometry analysis. Sub-G1 represents apoptotic fractions and >4 N cell fractions of mitotic slippage. e Immunofluorescence confocal microscopy of tubulin polymerization in SW480 cells treated by various agents. […] Representative blot of 3 independent experiments. g Tubulin polymerization was assessed in vitro over time using a fluorescence-based tubulin polymerization assay (BK011P). […] Polymerization was measured by excitation at 360 nm and emission at 420 nm. […]
Cells in log growth were supplemented with fresh medium with either vehicle (control) or compound at the stated final concentrations. […] After 1 h incubation at room temperature in the dark, cells were analyzed on a FACScan (Becton and Dickinson) in CellQuest. The percentage of cells in each phase of the cell cycle was determined using ModFit software (Verity, http://www.vsh.com). Early and late apoptotic responses elicited by WEHI-7326 were assessed using Dead Cell Apoptosis Kit (ThermoFisher Scientific) with Annexin V FITC and PI following manufacturer’s instructions. […]

[2] = Plasma protein binding; assay type: in vitro ADME; conditions: mouse plasma
Source text: a Measured physicochemical and solubility data for WEHI-7326. […] Microsomal-predicted EH values are included.

[3] = test system: 134056 HGSOC PDX; experiment: HGSOC PDX model 134056; assay type: in vivo, NSG mice; conditions: 134056 platinum-sensitive PDX; 20 mg/kg i.v. biweekly, 6 weeks
Description: Two to three mm ovarian tumor fragments were subcutaneously engrafted in the left flank of NSG mice and monitored by physical palpation for tumor growth and engraftment. Engrafted tumors were measured twice a week using digital Vernier calipers and maximum tumor diameter + perpendicular tumor length were digitally recorded into the Study Director software (v 3.0/4.0 StudyLog). Tumor volume was calculated automatically (tumor volume (mm^3) = 0.5236 x [larger diameter (mm) x smaller diameter (mm)^2]). Mice were randomized to treatment once their tumor volume reach 180–300 mm^3 and tumor measurements were performed twice a week up to 120 days or when the tumor volume reaches 700 mm^3.
Time to progressive disease (PD): Defined as the time (in days) from beginning of treatment to an increase in average tumor volume of >20% from the nadir (taken as the smallest average tumor volume recorded since treatment started or 200 mm^3 if nadir was <200 mm^3 as lesions smaller than this are difficult to measure with accuracy). Median time to harvest (TTH): Defined as the time (in days) from the beginning of treatment to day of harvest at 700 mm^3 and the median TTH was calculated and plotted using Kaplan-Meier curves. Based on ref. [27]. […]

[4] = test system: H1437 (non-small cell lung carcinoma) xenograft; experiment: H1437 tumor xenograft in nude mice; assay type: in vivo, BALB/c nude mice; conditions: i.p. three times weekly
Description: Tumor cell lines LIM2537, U87MGΔ2–7EGFR or H1437 were collected by trypsinization, counted and injected at 5 × 10^6 cells/ site subcutaneously on both flanks of BALB/c nude mice. Treatment with vehicle control or WEHI-7326 at given dose was initiated after 5 days. Drug or vehicle (100 μl) was injected intraperitoneally three times weekly. Control group and treatment group consisted of 8 mice each. Tumors were measured twice weekly with calipers. Tumor volumes were estimated using the modified ellipsoid formula V = 1/2 (length × width^2). The experiments were terminated when tumors in the control group started ulcerating or exceeded 17 mm in length, in line with the LICR/DoS Animal Ethics Committee guidelines (11/05 A).

For COc1ccc(CNc2nc(NCc3ccc(CN)cc3)nc(NN3CC(=O)NC3=O)n2)cc1 [WEHI-7326], the EC50 [1] was 19 ± 2.2 nM, the Protein binding [2] was 61 % bound and the “Median time to harvest (TTH)” value [3] was 78 days. The “Time to progressive disease (PD)” value [3] was 56 days and the Tumor growth [4] was “effective in reducing tumor growth”.

Reference: PMC7955127, “Preclinical small molecule WEHI-7326 overcomes drug resistance and elicits response in patient-derived xenograft models of human treatment-refractory tumors” (Cell Death & Disease, 2021)
